{"source": "patent US20210346359A1", "about": "“Use of CFTR Modulators For Treating Cerebrovascular Conditions” (Qanatpharma AG, priority 2018, published 2021)", "key": {"[1]": {"tested_on": "cremaster skeletal muscle resistance arteries", "test": "Cremaster skeletal muscle resistance artery myogenic tone and phenylephrine response with CFTR inhibition in vitro", "conditions": "wild-type mouse arteries; in vitro 100 nmol/L for 30 minutes", "description": "Isolation and functional assessment of resistance arteries: Mouse olfactory (a first branch of the anterior cerebral artery) and PCAs were carefully dissected, cannulated onto micropipettes, stretched to their in vivo lengths and pressurized to 45 mmHg, as previously described (3,6); mouse skeletal muscle resistance arteries were dissected from the cremaster muscle, cannulated and pressurized to 60 mmHg. All functional experiments were conducted in 3-morpholinopropanesulfonic acid (MOPS) buffered saline at 37° C. with no perfusion. […]\nMyogenic responses were elicited by step-wise 20 mmHg increases in transmural pressure from 20 mmHg to 80 mmHg (olfactory arteries) or 100 mmHg (posterior cerebral arteries and cremaster skeletal muscle resistance arteries). At each pressure step, vessel diameter (diaactive) was measured once a steady state was reached (5 min). Vessels requiring treatment (e.g., CFTR(inh)-172) were incubated with the reagent in MOPS for 30 min and myogenic responses were then assessed in the presence of that reagent. Following completion of all diaactive measurements, MOPS buffer was replaced with a Ca^2+-free version and maximal passive diameter (diamax) was recorded at each pressure step. […]"}, "[2]": {"tested_on": "olfactory cerebral artery", "conditions": "recent observations (6); cited from earlier work"}, "[3]": {"tested_on": "posterior cerebral arteries", "test": "Phenylephrine responses of isolated posterior cerebral arteries", "type": "in vivo, mouse", "conditions": "Mus musculus, posterior cerebral arteries, log scale, read-out: log EC50 of phenylephrine response (converted)", "description": "(§1) Isolation and functional assessment of resistance arteries: Mouse olfactory (a first branch of the anterior cerebral artery) and PCAs were carefully dissected, cannulated onto micropipettes, stretched to their in vivo lengths and pressurized to 45 mmHg, as previously described (3,6); mouse skeletal muscle resistance arteries were dissected from the cremaster muscle, cannulated and pressurized to 60 mmHg. All functional experiments were conducted in 3-morpholinopropanesulfonic acid (MOPS) buffered saline at 37° C. with no perfusion. Vasomotor responses to phenylephrine (5 μmol/L for posterior cerebral arteries, 10 μmol/L for cremaster skeletal muscle arteries) provided an assessment of vessel viability at the beginning and end of each experiment. Arteries failing to show ≥25% constriction to phenylephrine were excluded.\n(§2) Myogenic tone was calculated as the percent constriction in relation to the maximal diameter at each respective transmural pressure: tone (% of diamax)=[(diamax−diaactive)/diamax]×100, where diaactive is the vessel diameter in MOPS containing Ca^2+ and diamax is the diameter in Ca^2+-free MOPS. Analyses of vasomotor responses to phenylephrine used the same calculation, only in this case, diaactive represents the vessel diameter at steady state following application of the given agent and diamax represents the maximal diameter measured under Ca^2+-free conditions."}, "[4]": {"tested_on": "olfactory cerebral arteries", "test": "Phenylephrine responses of isolated olfactory cerebral arteries", "type": "in vivo, mouse", "conditions": "Mus musculus, olfactory cerebral arteries, log scale, read-out: log EC50 of phenylephrine response (converted)", "description": "as §1, §2"}, "TNF": {"biological_target": "T1, TNF (Mus musculus, UniProt P06804)", "T1 sequence (P06804 1-235)": "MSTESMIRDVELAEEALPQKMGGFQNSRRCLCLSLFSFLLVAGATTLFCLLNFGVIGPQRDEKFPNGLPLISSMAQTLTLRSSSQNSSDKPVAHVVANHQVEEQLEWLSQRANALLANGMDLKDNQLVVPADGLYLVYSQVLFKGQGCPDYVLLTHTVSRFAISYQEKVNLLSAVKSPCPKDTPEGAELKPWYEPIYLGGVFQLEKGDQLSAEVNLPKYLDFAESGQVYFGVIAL", "conditions": "HF and SAH models, cited from earlier work"}}, "note": "“Also recorded” adds a separate entry of the source. Where two headings read alike, the source gives them in different places.", "data": [{"compound": "O=C(O)c1ccc(/C=C2\\SC(=S)N(c3cccc(C(F)(F)F)c3)C2=O)cc1", "note": "[CFTR(inh)-172]", "values": [{"measurement": "cremaster skeletal muscle resistance artery myogenic tone", "setting": "[1]", "value": "does not affect; also recorded: not altered"}, {"measurement": "phenylephrine dose-response relationship in cremaster arteries", "setting": "[1]", "value": "not altered"}, {"measurement": "olfactory cerebral artery myogenic tone", "setting": "[2]", "value": "augments"}]}, {"compound": "CNC[C@H](O)c1cccc(O)c1", "note": "[phenylephrine]", "values": [{"measurement": "EC50", "setting": "[3]; CFTRΔF508 mice", "value": 1000, "unit": "nM"}, {"measurement": "EC50", "setting": "[3]; HF mice untreated", "value": 562, "unit": "nM"}, {"measurement": "EC50", "setting": "[3]; Sham (HF study)", "value": 501, "unit": "nM"}, {"measurement": "EC50", "setting": "[3]; WT littermates", "value": 1480, "unit": "nM"}, {"measurement": "EC50", "setting": "[4]; SAH untreated (C18 study)", "value": 977, "unit": "nM"}, {"measurement": "EC50", "setting": "[4]; SAH untreated (lumacaftor study)", "value": 1170, "unit": "nM"}, {"measurement": "EC50", "setting": "[4]; Sham (C18 SAH study)", "value": 3020, "unit": "nM"}, {"measurement": "EC50", "setting": "[4]; Sham (lumacaftor SAH study)", "value": 1620, "unit": "nM"}]}, {"compound": "etanercept", "values": [{"measurement": "HF- and SAH-mediated enhancement of cerebrovascular vasoconstriction (augmented myogenic tone)", "setting": "TNF; earlier work (3,4,6)", "value": "eliminates"}, {"measurement": "cerebral perfusion", "setting": "TNF; earlier work (3,4,6)", "value": "normalizes"}, {"measurement": "neuronal injury", "setting": "TNF; earlier work (5,6)", "value": "reduces"}]}]}
